The test system of the assay is Loblolly pine (Pinus taeda) embryogenic cell lines. Put plainly: Biolistic transformation and selection of transformed sublines with or without ABA in the selection medium (Example 1). The assay is classed as cell-based. The source says: To prepare for gene transfer, a sterile fabric support (in this example PECAP® fabric support, commercially available from SEFAR Inc.) was placed in a sterile Buchner funnel and one to five milliliters of embryogenic suspension was pipetted onto the fabric support such that the embryogenic tissue was evenly distributed over the surface. The liquid medium was suctioned from the tissues using a mild vacuum. The fabric support with embryogenic tissue was removed from the Buchner funnel and placed on a GELRITE® gelling agent solidified DCR3 preparation medium (Table 2) in 100×25 mm plastic petri dishes. Dishes were incubated in a dark growth chamber at 23°±2° C. for about 24-48 hours.
DNA was transferred into the tissues by the biolistic method described in U.S. patent application Ser. No. 09/318,136 filed on 25 May 1999 and New Zealand Patent No. 336149, each incorporated herein by reference, using the PDS-1000/He BIOLISTICS® Particle Delivery System (available from Bio-Rad Laboratories). The DNAs of interest, here containing the visual marker gene uidA and the selection gene nptII, were precipitated onto the surface of gold microparticles, which were subsequently accelerated toward embryogenic tissue to penetrate the cell walls. Once inside the cells, DNA is released from the carrier particles and integrated randomly into the chromosomes.
The petri dishes with the fabric support and embryonic tissues were then placed into the interior of the PDS 1000/He BIOLISTICS® device and vacuum applied to a level of 28 inches Hg. The gold particles carrying the DNA were accelerated toward the embryogenic tissue following a helium build-up and bursting regulated by a 1550 psi rupture disk. In the PDS-1000/He BIOLISTICS® device the gap between the rupture disk and the macrocarrier (gap distance) was five mm and the macrocarrier travel distance was 13 mm. Following DNA transfer the petri dishes containing the fabric support and tissues were incubated in a dark growth chamber at 23°±2° C. for about 24 hours. The tissues and fabric support were transferred to semi-solid maintenance medium, DCR1 (Table 2) to recover from carrier particle bombardment and incubated in a dark growth chamber at 23°±2° C. for a period of about seven days. The tissues and fabric support were transferred to a selection medium, semi-solid maintenance medium DCR1 containing a level of selection agent inhibitory to the growth of non-transformed cells. In this and subsequent examples the selection agent used was GENETICIN® antibiotic at 15-30 mg/l. The plates were incubated in a dark growth chamber at 23°±2° C. for about six to twelve weeks with the fabric supports containing the tissues being transferred to the same fresh culture medium every 2-3 weeks. […]

The results in this text go back to patent publication US6964870B2, “Enhanced selection of genetically modified pine embryogenic tissue” (MeadWestvaco Corporation, priority 2000, dated 2005).

In the case of `CC1=CC(=O)CC(C)(C)[C@@]1(O)/C=C/C(C)=C\C(=O)O` [ABA, abscisic acid], the “stable transformants after nine weeks of selection” value is “Stable transformants were detected” (10 mg/L ABA in medium only during the first three weeks of selection) and “more transformants were detected” (ABA in selection medium throughout the entire nine-week selection period). For the setting “ABA in the selection medium vs none”, the “transformants from a cell line of an elite family, progeny of P. taeda elite line 7-56” value is “observed only on treatments that had contained ABA in the selection medium”. In addition, under “ABA present during the entire period of transfer, all lines tested”, the “number of transformants obtained” value is recorded as “equal to or greater than the number obtained for any other treatment”.
